In ChEMBL document CHEMBL4765375, “Synthesis, antiproliferative activity and SAR analysis of (-)-cleistenolide and analogues” (Eur J Med Chem, 2020):

Assays:
MDA-MB-231 [1] = assay: Potency index, ratio of doxorubicin IC50 to compound IC50 for human MDA-MB-231 cells; assay type: functional
K562 = assay: Antiproliferative activity against human K562 cells assessed as reduction in cell viability measured after 6 days by MTT assay; assay type: functional, cell-based; settings: K562, 144 h
HL-60 = assay: Antiproliferative activity against human HL-60 cells assessed as reduction in cell viability measured after 6 days by MTT assay; assay type: functional, cell-based; settings: HL-60, 144 h
Jurkat = assay: Antiproliferative activity against human Jurkat cells assessed as reduction in cell viability measured after 6 days by MTT assay; assay type: functional, cell-based; settings: 144 h
Raji [2] = assay: Antiproliferative activity against human Raji cells assessed as reduction in cell viability measured after 6 days by MTT assay; assay type: functional, cell-based; settings: 144 h
MCF7 = assay: Antiproliferative activity against human MCF7 cells assessed as reduction in cell viability measured after 6 days by MTT assay; assay type: functional, cell-based; settings: MCF7, 144 h
MDA-MB-231 [3] = assay: Antiproliferative activity against human MDA-MB-231 cells assessed as reduction in cell viability measured after 6 days by MTT assay; assay type: functional, cell-based; settings: MDA-MB-231, 144 h
HeLa = assay: Antiproliferative activity against human HeLa cells assessed as reduction in cell viability measured after 6 days by MTT assay; assay type: functional, cell-based; settings: 144 h
A549 [4] = assay: Antiproliferative activity against human A549 cells assessed as reduction in cell viability measured after 6 days by MTT assay; assay type: functional, cell-based; settings: A549, 144 h
MRC5 = assay: Cytotoxicity against human MRC5 cells assessed as reduction in cell viability measured after 6 days by MTT assay; assay type: cell-based; settings: MRC5, 144 h
A549 [5] = assay: Potency index, ratio of doxorubicin IC50 to compound IC50 for human A549 cells; assay type: functional
Raji [6] = assay: Potency index, ratio of doxorubicin IC50 to compound IC50 for human Raji cells; assay type: functional

Row | IC50 (K562) | IC50 (HL-60) | IC50 (Jurkat) | IC50 (Raji [2]) | IC50 (MCF7) | IC50 (MDA-MB-231 [3]) | IC50 (HeLa) | IC50 (A549 [4]) | Structure (SMILES) | Ratio IC50 (MDA-MB-231 [1]) | IC50 (MRC5) | Ratio IC50 (A549 [5]) | Ratio IC50 (Raji [6])
1 | 3.69 µM | 32.6 µM | 24.4 µM | 1.85 µM | 2.64 µM | 1.85 µM | 11 µM | 15.7 µM | CC(=O)O[C@@H]1C=CC(=O)O[C@@H]1[C@@H](COC(=O)c1ccc(Cl)cc1)OC(C)=O | – | > 100 µM | – | –
2 | 3.25 µM | 8.25 µM | 47.2 µM | 1.08 µM | 2.36 µM | 52.3 µM | 15.5 µM | 21.5 µM | O=C1C=C[C@@H](OC(=O)c2ccccc2)[C@@H]([C@@H](COC(=O)c2ccccc2)OC(=O)c2ccccc2)O1 | – | > 100 µM | – | –
3 | 4.65 µM | 6.21 µM | 21.2 µM | 2.69 µM | 30.2 µM | 1.58 µM | 7.64 µM | 18.2 µM | COc1cccc(C(=O)OC[C@@H](OC(=O)c2cccc(OC)c2)[C@H]2OC(=O)C=C[C@H]2OC(=O)c2cccc(OC)c2)c1 | – | > 100 µM | – | –
4 | 3.46 µM | 1.89 µM | 5.32 µM | 2.31 µM | 4.26 µM | 34.4 µM | 1.68 µM | 2.12 µM | CC(=O)O[C@@H]1C=CC(=O)O[C@@H]1[C@@H](COC(=O)/C=C/c1ccc(F)cc1)OC(C)=O | – | > 100 µM | – | –
5 | 6.96 µM | 10 µM | 2.59 µM | 10 µM | 9.31 µM | 22.8 µM | 5.93 µM | 1.4 µM | COc1ccc(/C=C/C(=O)OC[C@@H](OC(C)=O)[C@H]2OC(=O)C=C[C@H]2OC(C)=O)cc1 | – | 78 µM | – | –
6 | 7.64 µM | 1.11 µM | 7.45 µM | 18.5 µM | 5.32 µM | 4.12 µM | 4.65 µM | 8.64 µM | CC(=O)O[C@@H]1C=CC(=O)O[C@@H]1[C@@H](COC(=O)c1ccc([N+](=O)[O-])cc1)OC(C)=O | – | > 100 µM | – | –

The next lines start with the compound.

Row | Structure (SMILES) | IC50 (K562) | IC50 (HL-60) | IC50 (Jurkat) | IC50 (Raji [2]) | IC50 (MCF7) | IC50 (MDA-MB-231 [3]) | IC50 (HeLa) | IC50 (A549 [4]) | Ratio IC50 (MDA-MB-231 [1]) | IC50 (MRC5) | Ratio IC50 (A549 [5]) | Ratio IC50 (Raji [6])
7 | CC(=O)O[C@@H]1C=CC(=O)O[C@@H]1[C@@H](COC(=O)c1c(Cl)cc(Cl)cc1Cl)OC(C)=O | – | – | – | – | – | – | – | – | 5 | – | – | –
8 | O=C1C=C[C@@H](OCc2ccccc2)[C@@H]([C@@H](COC(=O)/C=C/c2ccc([N+](=O)[O-])cc2)OCc2ccccc2)O1 | 1.27 µM | 2.53 µM | 5.71 µM | 0.14 µM | 1.66 µM | 1.55 µM | 2.65 µM | 5.24 µM | – | > 100 µM | – | –
9 | CO[C@H]1CC(=O)O[C@H]([C@@H](COC(=O)/C=C/c2ccc([N+](=O)[O-])cc2)OC(C)=O)[C@@H]1OC(C)=O | 2.38 µM | 3.11 µM | 0.12 µM | 5.64 µM | 5.12 µM | 28.6 µM | 0.67 µM | 0.18 µM | – | > 100 µM | 27 | –
10 | CC(=O)O[C@@H]1C=CC(=O)O[C@@H]1[C@@H](COC(=O)/C=C/c1ccc([N+](=O)[O-])cc1)OC(C)=O | 2.34 µM | 4.03 µM | 0.58 µM | 2.75 µM | 1.4 µM | 6.93 µM | 1.84 µM | 2.26 µM | – | > 100 µM | – | –
11 | CC(=O)OC[C@@H](OC(C)=O)[C@H]1OC(=O)C=C[C@H]1OC(C)=O | 7.54 µM | 29.7 µM | 24.6 µM | 10.1 µM | 3.87 µM | 7.48 µM | 2.64 µM | 12.6 µM | – | > 100 µM | – | –
12 | O=C1CC2OCC(OCc3ccccc3)C(O1)C2OCc1ccccc1 (stereo unspecified) | 8.1 µM | 3.48 µM | 1.08 µM | 0.6 µM | 0.21 µM | 0.16 µM | 8.22 µM | 6.24 µM | – | > 100 µM | – | –
13 | O=C1C=C[C@@H](OCc2ccccc2)[C@@H]([C@@H](COC(=O)/C=C/c2ccc(F)cc2)OCc2ccccc2)O1 | 1.01 µM | 5.4 µM | 4.16 µM | 2.47 µM | 3.01 µM | 3.58 µM | 7.31 µM | 12.1 µM | – | > 100 µM | – | –
14 | COc1ccc(/C=C/C(=O)OC[C@@H](OCc2ccccc2)[C@H]2OC(=O)C=C[C@H]2OCc2ccccc2)cc1 | 0.43 µM | 1.57 µM | 10.3 µM | 0.69 µM | 1.11 µM | 3.26 µM | 1.08 µM | 4.25 µM | – | > 100 µM | – | –
15 | O=C1C=C[C@@H](OCc2ccccc2)[C@@H]([C@@H](CO)OCc2ccccc2)O1 | 1.42 µM | 10.2 µM | 12.3 µM | 0.01 µM | 17.6 µM | 4.79 µM | 4.8 µM | 12.9 µM | – | > 100 µM | – | 298
16 | O=C1C=C[C@@H](OCc2ccccc2)[C@@H]([C@@H](COC(=O)/C=C/c2ccccc2)OCc2ccccc2)O1 | 1.59 µM | 0.61 µM | 4.96 µM | 1.33 µM | 2.57 µM | 4.97 µM | 9.51 µM | 13.2 µM | – | > 100 µM | – | –
17 | CC(=O)OC[C@@H](OCc1ccccc1)[C@H]1OC(=O)C=C[C@H]1OCc1ccccc1 | 0.88 µM | 9.23 µM | 14.7 µM | 1.82 µM | 18.9 µM | 6.42 µM | 5.35 µM | 15 µM | – | > 100 µM | – | –
18 | O=C1CC2OCC(O)C(O1)C2O (stereo unspecified) | 2.92 µM | 1.64 µM | 1.65 µM | 8.12 µM | 3.34 µM | 31.5 µM | 1.17 µM | 1.15 µM | – | > 100 µM | – | –
